Patent publication US7390875B2, “Method for binding, in solution, a peptide and a lipophilic vector and uses thereof” (Institut Pasteur de Lille, priority 2000, dated 2008)
Starred links: 1 amine or outer side, 2 acyl side, 3 side chain; linkers in the order of their positions; H or OH if unused. Hydrazinoacetyl = O=C(CNN[*:1])[*:2]

Test system: class II molecules of the MHC at the surface of COLO 205 cells
Experiment: Quantification of the expression of class II MHC molecules at the surface of COLO 205 cells after incubation with lipopeptides (flow cytometry)
Type: cell-based, human
Details: Table IIIb; for Ratio (mean fluorescence treated vs non-treated cells): L243 antibody / ALEXA 488
Experimental: 2) Protocol for Quantification of the Expression of Molecules of Class II of the Major Histocompatibility Complex (MHC) at the Surface of the Cells.
The COLO 205 cells (human cell line obtained from a carcinoma of the colon) come from the ATCC (American Type Culture Collection) cell bank. They are cultivated in an RPMI 1640 medium (Gibco BRL, Courbevoie, France) with 10% of fetal calf serum (FCS) and 5 mM of sodium pyruvate, and incubated at 37° C. in the presence of 5% of CO2. […]
The surface expression of the class II molecules of the MHC is analysed using flow cytometry with a Coulter EPICS II cytometer, at the rate of 10,000 events per sample. The fluorescence intensity observed is directly proportional to the quantity of class II molecules of the MHC present on the surface of the cells. The mean fluorescence value observed for the non-treated cells and for the treated cells (“Mean” column in Table III) makes it possible to calculate a ratio between the mean fluorescence value of the non-treated cells and the mean fluorescence value for the treated cells (“Ratio” column in Table III). The control consists in incubating the cells in the absence of lipopeptides.

L-MU-IFNγc: presumably peptide Mu-IFNγ c (SEQ ID NO: 12) coupled with palmitoyl vector (IIIa); synthesis not described (H-K(Hydrazinoacetyl)AKFEVNNPQVQRQAFNELIRVVHQLLPESSLRKRKRSR-NH2; also: palmitoyl vector (IIIa) coupled by hydrazone bond)
Ratio (mean fluorescence treated vs non-treated cells) (5 μM lipopeptide): 2.14
Mean (mean fluorescence value) (5 μM lipopeptide, L243 antibody revealed by second antibody coupled to ALEXA 488, control mean 0.607): 1.3
Ratio (mean fluorescence treated vs non-treated cells) (10 μM lipopeptide): 2.83
Mean (mean fluorescence value) (10 μM lipopeptide, L243 antibody / ALEXA 488, control mean 0.607): 1.72
Ratio (mean fluorescence treated vs non-treated cells) (35 μM lipopeptide): 24.8
Mean (mean fluorescence value) (35 μM lipopeptide, L243 antibody / ALEXA 488, control mean 0.607): 15.1
